{"source": "patent US6933289B2", "about": "“Inhibition of irritating side effects associated with use of a topical ophthalmic medication” (Allergan, Inc., priority 2003, dated 2005)", "key": {"[1]": {"experiment": "Phase-solubility analysis: association constant between bimatoprost and cyclodextrin or cyclodextrin derivative", "assay_type": "physicochemical", "details": "1:1 complex with bimatoprost, stirred one week at room temperature", "protocol": "CD represents the associated complex of the two. […] CD], according to equation 2. [formula]\nThe association constant between the bimatoprost and four cyclodextrin or cyclodextrin derivatives was determined by running phase-solubility analysis. A series of small glass bottles was set up, each fitted with a screw cap and a magnetic stir bar with increasing concentrations of cyclodextrin or cyclodextrin derivative dissolved in a fixed volume (e.g., 10 mL) of aqueous vehicle (e.g., the formulation minus the drug and the cyclodextrin or cyclodextrin derivative). […] Bottles were then capped and the suspensions were stirred for a week at room temperature to ensure equilibrium. Undissolved drug was removed by centrifugation, followed by filtration through a 0.45 μm filter membrane to obtain a clear solution, free of drug in suspension. The concentration of the solubilized drug in each filtrate sample was determined and drug solubility (y-axis) was plotted against the concentration of the cyclodextrin or cyclodextrin derivative (x-axis). […] In principle, S0 is equivalent to the y intercept (b) of the fitted line, however, in most cases it can more accurately be determined by direct measurement of the solubility rather than indirectly from the fit of data."}, "[2]": {"details": "0.02% bimatoprost, cited from earlier work"}}}
{"compound": "OC[C@H]1O[C@@H]2O[C@H]3[C@H](O)[C@@H](O)[C@@H](O[C@H]4[C@H](O)[C@@H](O)[C@@H](O[C@H]5[C@H](O)[C@@H](O)[C@@H](O[C@H]6[C@H](O)[C@@H](O)[C@@H](O[C@H]7[C@H](O)[C@@H](O)[C@@H](O[C@H]8[C@H](O)[C@@H](O)[C@@H](O[C@H]9[C@H](O)[C@@H](O)[C@@H](O[C@H]1[C@H](O)[C@H]2O)O[C@@H]9CO)O[C@@H]8CO)O[C@@H]7CO)O[C@@H]6CO)O[C@@H]5CO)O[C@@H]4CO)O[C@@H]3CO", "note": "[γ-cyclodextrin]", "values": [{"measurement": "Association Constant (molar association constant for bimatoprost)", "setting": "[1]", "result": "≈439 M^−1"}]}
{"compound": "Sulfobutyl ether β-cyclodextrin", "values": [{"measurement": "Association Constant (molar association constant for bimatoprost)", "setting": "[1]", "result": "≈1464 M^−1"}]}
{"compound": "CCNC(=O)CCC/C=C\\C[C@@H]1[C@@H](/C=C/[C@@H](O)CCc2ccccc2)[C@H](O)C[C@@H]1O", "note": "[bimatoprost]", "values": [{"measurement": "Hyperemia", "setting": "[2]; no cyclodextrin", "result": "little hyperemia"}, {"measurement": "Efficacy", "setting": "[2]", "result": "loses efficacy"}]}
{"compound": "2-Hydroxypropyl β-cyclodextrin", "values": [{"measurement": "Association Constant (molar association constant for bimatoprost)", "setting": "[1]", "result": "≈1913 M^−1"}]}
